{"source": "patent US6056958A", "about": "“Method of treatment of arterial and venous thromboembolic disorders” (Dupont Pharmaceuticals, priority 1997, dated 2000)", "key": {"GPIIb/IIIa receptor": {"target": "T1, GPIIb/IIIa receptor (Homo sapiens, UniProt P05106+P08514)", "T1 construct": "The GPIIb/IIIa receptor was purified from human platelets; from tissue; host or cells: human platelets (purified according to D'Souza et al., J. Biol. Chem. 1990, 265:3440-3446)", "T1 sequence (P08514 32-887 limits assumed)": "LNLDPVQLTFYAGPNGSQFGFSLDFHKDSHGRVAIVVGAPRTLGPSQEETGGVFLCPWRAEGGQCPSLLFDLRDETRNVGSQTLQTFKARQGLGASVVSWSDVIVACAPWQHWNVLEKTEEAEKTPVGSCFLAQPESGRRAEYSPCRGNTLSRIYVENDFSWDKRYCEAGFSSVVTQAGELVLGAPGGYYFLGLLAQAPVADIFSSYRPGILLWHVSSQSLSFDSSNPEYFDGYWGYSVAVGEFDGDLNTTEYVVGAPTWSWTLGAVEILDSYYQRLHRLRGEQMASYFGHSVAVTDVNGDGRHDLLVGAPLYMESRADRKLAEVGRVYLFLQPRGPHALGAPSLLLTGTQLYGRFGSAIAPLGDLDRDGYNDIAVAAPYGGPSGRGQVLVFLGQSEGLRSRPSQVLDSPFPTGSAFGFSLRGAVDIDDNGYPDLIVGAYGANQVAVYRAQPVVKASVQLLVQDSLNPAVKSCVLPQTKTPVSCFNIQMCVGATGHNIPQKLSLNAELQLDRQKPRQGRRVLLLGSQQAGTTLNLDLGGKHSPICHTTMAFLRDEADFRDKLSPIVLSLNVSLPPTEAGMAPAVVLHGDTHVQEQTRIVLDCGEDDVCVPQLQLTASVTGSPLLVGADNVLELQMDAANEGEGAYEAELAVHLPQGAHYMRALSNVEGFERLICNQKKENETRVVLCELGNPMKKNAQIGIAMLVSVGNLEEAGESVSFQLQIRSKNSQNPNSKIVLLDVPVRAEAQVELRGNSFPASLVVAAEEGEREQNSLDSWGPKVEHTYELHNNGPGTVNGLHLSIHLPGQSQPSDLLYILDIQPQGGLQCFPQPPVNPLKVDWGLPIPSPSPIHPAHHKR", "T1 sequence (P08514 891-1039 partner limits assumed)": "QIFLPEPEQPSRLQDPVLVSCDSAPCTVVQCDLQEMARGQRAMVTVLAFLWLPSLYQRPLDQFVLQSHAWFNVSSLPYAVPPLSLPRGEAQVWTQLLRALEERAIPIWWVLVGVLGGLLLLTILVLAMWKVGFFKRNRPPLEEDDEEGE", "T1 sequence (P05106 27-788)": "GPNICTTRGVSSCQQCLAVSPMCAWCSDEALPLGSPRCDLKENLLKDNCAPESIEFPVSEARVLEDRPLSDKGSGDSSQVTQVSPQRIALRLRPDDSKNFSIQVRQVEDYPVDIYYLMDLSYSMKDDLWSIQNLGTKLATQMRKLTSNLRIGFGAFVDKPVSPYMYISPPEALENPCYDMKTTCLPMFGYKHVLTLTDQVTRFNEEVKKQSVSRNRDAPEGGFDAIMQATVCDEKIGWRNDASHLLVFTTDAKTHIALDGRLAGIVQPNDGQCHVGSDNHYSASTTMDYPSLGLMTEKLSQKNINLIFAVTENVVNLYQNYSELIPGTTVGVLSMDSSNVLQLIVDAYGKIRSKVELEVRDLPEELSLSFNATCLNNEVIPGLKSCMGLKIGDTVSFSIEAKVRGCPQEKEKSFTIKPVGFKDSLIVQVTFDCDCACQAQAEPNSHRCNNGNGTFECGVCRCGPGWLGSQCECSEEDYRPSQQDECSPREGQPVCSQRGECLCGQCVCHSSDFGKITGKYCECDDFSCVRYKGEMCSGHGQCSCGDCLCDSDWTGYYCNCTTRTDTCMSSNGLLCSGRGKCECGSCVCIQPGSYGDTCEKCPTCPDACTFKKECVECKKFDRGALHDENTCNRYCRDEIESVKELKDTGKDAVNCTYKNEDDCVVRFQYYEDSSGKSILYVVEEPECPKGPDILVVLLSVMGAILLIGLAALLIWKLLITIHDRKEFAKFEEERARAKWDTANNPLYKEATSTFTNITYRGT", "test": "GPIIb/IIIa Receptor-Biotinylated Fibrinogen Binding Assay", "details": "inhibition of fibrinogen binding to purified GPIIb/IIIa", "description": "Compounds may be tested for their ability to block binding of vitronectin to the αv /β3 receptor and to block the binding of fibrinogen to GPIIb/IIIa receptor in the αv /β3 -Biotinylated Vitronectin Binding Assay and GPIIb/IIIa Receptor-Biotinylated Fibrinogen Binding Assay described below.\nGPIIb/IIIa Receptor-Biotinylated Fibrinogen Binding Assay\nThe GPIIb/IIIa receptor was purified from human platelets according to D'Souza et al. (J. Biol. Chem., 1990, 265:3440-3446). The purified GPIIb/IIIa protein was coated on 96 well plates and the competition between test compound and biotinylated fibrinogen for binding to the plate-immobilized GPIIb/IIIa receptor was determined by ELISA as described below. Bound fibrinogen was detected using an avidin-alkaline phosphatase conjugate and paranitrophenol detection at […]. For IC50 determination, test agent was added at various concentrations to plates coated with purified GPIIb/IIIa protein which was followed by the addition of biotinylated fibrinogen. The inhibitory binding constant (Ki) of test agents were calculated under this assay system using standard Michaelis-Menten analysis. The IC50 is the concentration of test substance needed to block 50% of the fibrinogen binding to the GPIIb/IIIa receptor.\nThe following reagents may be used in the GPIIb/IIIa-fibrinogen binding ELISA:\npurified GPIIb/IIIa (148.8 μg/mL);\nbiotinylated fibrinogen (~1 mg/mL or 3000 nM);\nanti-biotin alkaline phosphatase conjugate (Sigma no. A7418);\nflat-bottom, high binding, 96-well plates (Costar Cat. no. 3590);\nphosphatase substrate (Sigma 104) (40 mg capsules);\nbovine serum albumin (BSA) (Sigma no. A3294);\nAlkaline Phosphatase buffer--0.1 M glycine-HCl, 1 mM MgCl2.6H2 O, 1 mM ZnCl2, pH 10.4;\nBinding buffer--20 mM Tris-HCl, 150 mM NaCl, 1 mM CaCl2.2H2 O, 0.02% NaN3, pH 7.0;\nBuffer A--50 mM Tris-HCl, 100 mM NaCl, 2 mM CaCl2.2H2 O, 0.02% NaN3, pH 7.4;\nBuffer A+3.5% BSA (Blocking buffer);\nBuffer A+0.1% BSA (Dilution buffer);\nThe following method steps are used in the GPIIb/IIIa-fibrinogen binding ELISA:\nCoat plates with GPIIb/IIIa in Binding buffer (125 ng/100 μL/well) overnight at 4° C. (Leave first column uncoated for non-specific binding). Cover and freeze plates at -70° C. until used. Thaw plate 1 hour at room temperature or overnight at 4° C. Discard coating solution and wash once with 200 μL Binding buffer per well. Block plate 2 hours at room temperature on shaker with 200 μl Buffer A+3.5% BSA (Blocking buffer) per well. Discard Blocking buffer and wash once with 200 μL Buffer A+0.1% BSA (Dilution buffer) per well. Pipet 11 μL of test compound (10× the concentration to be tested in Dilution buffer) into duplicate wells. […] Read plate at 405 nm. Blank against non-specific binding (NSB) well. % Inhibition is calculated as 100-(Test Compound Abs/Total Abs)×100."}, "[1]": {"test": "Bleeding Time in anesthetized dogs (tongue incision)", "details": "dog, IV, saline 3-5"}, "[2]": {"test_system": "dog thrombosis model (carotid artery, femoral artery, femoral vein)", "test": "Carotid, Femoral Artery and Femoral Vein Thrombosis in Dogs (Electrolytic Injury Model)", "format": "in vivo", "details": "for Incidence of Occlusion / Time to Occlusion / Blood Flow, Basal / Blood Flow, End: dog carotid artery; for Incidence of Occlusion: saline 44/44; for Time to Occlusion: saline 93 ±30.4; for Blood Flow, End: saline 0; for Thrombus Weight (wet, mg), left femoral vein / Thrombus Weight (wet, mg), left carotid artery: dog, P<0.05", "description": "Carotid, Femoral Artery and Femoral Vein Thrombosis In Dogs (Electrolytic Injury Model)\nThe thrombosis model used in this study is a modification of the one described by Rote et al., J. Cardiovascular Pharmacolgy, 1993, 23:194-202. The experimental procedure provides the formation of a platelet rich intravascular thrombus at the site of the electrolytically-induced lesion in the arterial side. The femoral artery and carotid artery responses to the electrolytic injury are similar to that observed in the canine coronary artery in which intimal wall injury secondary to application of a direct anodal current leads to platelet adherence with the resultant occlusive thrombus formation (Rote et al., J. Cardiovascular Pharmacolgy, 1993, 23:194-202; Mousa et al., Circulation, 1994, 89:3-12). Animals were instrumented and a 20-30 mm segment of the femoral or carotid arteries were exposed and freed from facia, and branches were tied. Anodal current was applied using an intravascular electrode Penetration of the vessel wall by the electrode was facilitated by attaching the tip of a 23 gauge hypodermic needle to the uninsulated part of the electrode. Each intra-arterial electrode was connected to the positive pole (anodal) of a dual channel stimulator (Ni-Cad battery, 9 volts connected to 250,000 Ohm potentiometer in series). The cathode was connected to a distant subcutaneous site. The current delivered to the arterial wall was monitored continuously and maintained at 200 μA. Proper positioning of the electrode in the artery was confirmed by visual inspection at the end of each experiment. In all experiments the anodal current was applied for a maximum period of 3 hours. Arterial flow was monitored throughout the experiment by placing a doppler flow probe connected to a flow meter around the distal portion of the vessel segment. Similar procedures were applied to the femoral vein. […]"}, "[3]": {"details": "dog, in vivo, iv"}, "[4]": {"details": "dog, in vivo"}, "[5]": {"details": "0.1 mg/kg IV bolus + 0.1 mg/kg IV infusion 3 hr"}, "[6]": {"details": "0.1 mg/kg IV bolus + 0.4 mg/kg IV infusion 3 hr"}}, "note": "pIC50: −log10 of the molar value. Read-outs that look alike come from different tables or passages of the source. Non-standard residues stand in square brackets, D forms with d. Residues, ends and D or L forms follow the SMILES beside them. 3Amb = NCc1cccc(C(=O)O)c1"}
{"smiles": "C[C@@H]1NC(=O)c2cccc(c2)CNC(=O)[C@H](CC(=O)O)NC(=O)CNC(=O)[C@H](CCCNC(=N)N)NC1=O", "note": "[Compound A, cyclo-(Ala-Arg-Gly-Asp-Mamb)] (cyclo(RGD[3Amb]A))", "values": [{"measurement": "pIC50", "setting": "GPIIb/IIIa receptor", "value": 6.39}, {"measurement": "Bleeding Time", "setting": "[1]; 1 mg/kg", "value": "3 to 4", "unit": "min"}, {"measurement": "Bleeding Time", "setting": "[1]; 3 mg/kg", "value": "3 to 4", "unit": "min"}, {"measurement": "Bleeding Time", "setting": "[1]; 10 mg/kg", "value": "5 to 6", "unit": "min"}, {"measurement": "Incidence of Occlusion", "setting": "[2]; [5]", "value": "0/4"}, {"measurement": "Time to Occlusion", "setting": "[2]; [5]", "value": "> 180", "unit": "min"}, {"measurement": "Blood Flow, Basal", "setting": "[2]; 0.1 mg/kg IV bolus + 0.1 mg/kg IV infusion 3 hr, spread ±4.7", "value": 29.4, "unit": "cm/s"}, {"measurement": "Blood Flow, End", "setting": "[2]; 0.1 mg/kg IV bolus + 0.1 mg/kg IV infusion 3 hr, spread ±11", "value": 16.3, "unit": "cm/s"}, {"measurement": "Incidence of Occlusion", "setting": "[2]; [6]", "value": "0/4"}, {"measurement": "Time to Occlusion", "setting": "[2]; [6]", "value": "> 180", "unit": "min"}, {"measurement": "Blood Flow, Basal", "setting": "[2]; 0.1 mg/kg IV bolus + 0.4 mg/kg IV infusion 3 hr, spread ±2.7", "value": 30.2, "unit": "cm/s"}, {"measurement": "Blood Flow, End", "setting": "[2]; 0.1 mg/kg IV bolus + 0.4 mg/kg IV infusion 3 hr, spread ±8.1", "value": 23.8, "unit": "cm/s"}, {"measurement": "Cyclic Flow Rate (frequency/hr)", "setting": "[2]; dog femoral artery, 0.1 mg/kg IV bolus + 0.1 mg/kg IV infusion 3 hr, n=4, mean ± SD, P<0.01, saline 8 ± 5.5", "value": "0.5 ± 0.4", "unit": "frequency/hr"}, {"measurement": "Thrombus Weight (wet, mg), left femoral vein", "setting": "[2]; 0.1 mg/kg IV bolus + 0.4 mg/kg infusion 3 hr, n=4, mean ± SD, saline 18 ± 5", "value": "2 ± 1", "unit": "mg"}, {"measurement": "Thrombus Weight (wet, mg), left carotid artery", "setting": "[2]; 0.1 mg/kg IV bolus + 0.4 mg/kg infusion 3 hr, n=4, mean ± SD, saline 53 ± 4", "value": "13 ± 2", "unit": "mg"}, {"measurement": "Thrombus Weight (wet, mg), left carotid artery", "setting": "[2]; 1 mg/kg IV bolus, n=3, 200 μA, mean ± SD, saline right carotid 51 ± 4", "value": "14 ± 4", "unit": "mg"}, {"measurement": "Thrombus Weight (wet, mg), left femoral vein", "setting": "[2]; 1 mg/kg IV bolus, n=3, 200 μA, mean ± SD, saline right femoral vein 18 ± 5", "value": "4 ± 3", "unit": "mg"}]}
{"smiles": "N=C(N)NCCC[C@@H]1NC(=O)[C@@H]2CCCN2C(=O)c2cccc(c2)CNC(=O)[C@H](CC(=O)O)NC(=O)CNC1=O", "note": "[Compound B, cyclo-(Pro-Arg-Gly-Asp-Mamb)] (cyclo(RGD[3Amb]P))", "values": [{"measurement": "pIC50", "setting": "GPIIb/IIIa receptor", "value": 5.82}, {"measurement": "Bleeding Time", "setting": "[3]; 1 mg/kg", "value": "3 to 4", "unit": "min"}, {"measurement": "Bleeding Time", "setting": "[3]; 3 mg/kg", "value": "3 to 4", "unit": "min"}, {"measurement": "Bleeding Time", "setting": "[3]; 10 mg/kg", "value": "3 to 4", "unit": "min"}, {"measurement": "effect on apothrombin time or thrombin time", "setting": "[4]", "value": "no effect on apothrombin time or thrombin time"}]}
